Test system: C. acnes (ATCC 6919)
Experiment: Growth of C. acnes, MIC plate method
Type: cell-based, Cutibacterium acnes
Details: actives at the stated % in 20 ml agar; 10 μl inoculum spotted; 37° C. 4-5 days anaerobically
Procedure: The actives whether used singly or in combination as shown in Table-1 were tested for growth of C. acnes using the invitro protocol as given below:
Protocol used for Measuring Growth (MIC Plate Method)
Working Cultures of Test Organisms
For C. acnes (ATCC 6919): Approximately 4-5 days prior to testing, a sterile plate of […] (RCM Agar) was inoculated with the challenge bacterial test organism and incubated at 37° C.±1° C. for 4-5 days anaerobically.
Test Organism Suspensions (To Be Prepared Just Before Use)
A suspension of the challenge microorganism was prepared in sterile 0.85% saline and a cell density were adjusted at 620 nm to achieve a challenge suspension concentration of approximately 1.0×10^8 colony forming units per ml for bacteria
Preparation of Sample Concentrations
• a) Aliquot of samples were taken to achieve required test concentration in 20 ml of agar system. • b) Test samples were initially dissolved in 1 ml of sample diluent (sterile d/water or solvent) to get test solutions • c) The test solutions were added to 20 ml sterile molten agar maintained at a temperature of 45-50° C., mixed thoroughly and poured into petri plates. The agar was allowed to solidify at room temperature. • d) On solidification, 10μl inoculum of prepared test culture was spotted onto respective agar surfaces in duplicates • e) The inoculated plates were allowed to stand at room temperature until the inoculum spots had been absorbed into the agar. The plates were incubated at 37° C. ±1° C. for 4-5 days anaerobically. After completion of incubation, plates were checked for growth and no growth to determine the MIC value.

Row | SMILES | Observation (growth of C. acnes)
1 | CCC(C)c1ccc(O)cc1 (stereo not drawn) [C, 4 sec butyl phenol] | Growth
2 | Oc1ccc(C2CCCC2)cc1 [E, 4 cyclo pentyl phenol] | Growth
3 | CCCCCCc1ccc(O)cc1O [Example A, 4 hexyl resorcinol] | Growth
